A value given as a limit tells only on which side of the number the result lay.

The melting point is the temperature, or range, at which the solid turns liquid.

`CCCCCCCCCCCCCCCCSC(=O)Nc1ccc(NC(=O)NS(=O)(=O)c2ccc3ccccc3c2)cc1`: the melting point is 190 °C. The molecule `COCCNC(=O)Nc1c(C)c(C)c2c(c1C)C(c1ccc(C(C)C)cc1)CO2` (stereo not drawn) had a melting point of 172 to 173 °C. For `COC1=C(OC)C(=O)C(CCCCCCCCCC(=O)N[C@@H](CCSC)C(=O)O)=C(C)C1=O`, the melting point fell in the range of 83 to 85 °C. The molecule `CC1(C)NC(=O)N(CC(CSc2ccc(-c3ccc(C(F)(F)F)cc3)cc2)N(O)C=O)C1=O` (stereo not drawn) had a melting point of 172 to 174 °C. In the case of `COc1ccc(OC)c2c1C=C(C(=O)O)CC2` it was less than 220 °C.

Consider `COC(=O)C(CS)NC(=O)C(=O)NCCS` (stereo not drawn), for which the melting point was 112 °C.

As to `Cc1cc(C)c(C(CO)c2ccc(C(C)C)cc2)c(O)c1C` (stereo not drawn), the melting point lay in the range of 101 to 102 °C. To `CC(=O)N1c2ccccc2-c2c(N)cnn2C1C` (stereo not drawn) belongs 170 to 172 °C. For `Cc1cccc2c(=O)nc(-c3cccc(C(=O)O)n3)sc12`, the melting point lay in the range of 260 to 261 °C.

For `CC(C)c1nn(-c2ccc(C(F)(F)F)cn2)cc1COc1cc(C=O)n(C)n1`, the melting point is 112 to 113 °C. In turn, `O=C(Cn1c(=O)c(=O)[nH]c2cc(C(F)(F)F)c(-n3cccc3)cc21)NCc1ccccc1` had a melting point of 241 to 242 °C. As for `NC(=O)c1ccc(C2CCCCCC2)c(Cl)c1`, the melting point was 152 to 155 °C. For `COc1cnc(CS(C)(=O)=O)nc1OC(=O)NN1CCOCC1`, the melting point came out at 138 °C. To `CCOC(=O)N1Cc2ccccc2C(Oc2cccc(C(F)(F)F)c2)C1` (stereo not drawn) belongs 98 to 100 °C; to `COc1cncnc1N1CCN(CCCc2c[nH]c3ccc(Nc4c(OC(C)C)c(=O)c4=O)cc23)CC1`, 140 to 143 °C. In the case of `Fc1ccc(Cn2c(NC3CCN(CCSc4nc5cccnc5s4)CC3)nc3ccccc32)cc1` it was 160 °C; in that of `COCCNC(=O)c1ccc(C)c(-n2c(C)cc(OCc3ccccc3CNC(=O)Nc3cc(C(C)(C)C)nn3-c3ccc(Cl)c(O)c3)c(Cl)c2=O)c1`, 182 to 183 °C. `CN1CCN(CCCNc2ccccc2N)CC1` returned a melting point of 65 to 67 °C. To `Clc1ccc(Cn2cc(C3(Cn4ccnc4)CCCC3)c3ccccc32)cc1` belongs 91 to 92 °C; to `CC(=O)Oc1ccc(-c2c3ccccc3c(Br)c3sc4ccccc4c23)cc1OC(C)=O`, 178 to 179 °C; to `Cc1c(C)c2c(c(C)c1NC(=O)c1ccc(Cl)cc1)C(c1ccc(C(C)C)cc1)C(C)(C)O2` (stereo not drawn), 201 to 203 °C. In the case of `CCOC(=O)CSc1nc(Cl)cc(Nc2ccccc2)n1` it was 109 to 114 °C; in that of `C[Si](C)(C)c1cccc2c1Sc1c(cccc1[Si](C)(C)C)S2`, 90 to 91 °C. Consider `CCCc1nccn1-c1nc(Cl)nc2c1ncn2C1OC(COC(C)=O)C(OC(C)=O)C1OC(C)=O` (stereo not drawn), for which the melting point is 126 to 128 °C. Turning to `O=c1c2ccccc2nc(-c2ccccc2)n1CCN1CCC(c2c[nH]c3ccccc23)CC1`, the melting point worked out at 191 °C. To `O=C(O)COc1c(-c2cccc(Cl)c2)cc(C(=O)NCCCCCCCCc2ccccc2)cc1-c1cccc(Cl)c1` belongs 165 to 167 °C; to `Cc1ncc(Cn2c(S)nc3ccccc32)o1`, 153 °C; to `O=C1c2cccc(NC3CCCC3)c2C(=O)c2cccc(NC3CCCC3)c21`, 198 to 201 °C. In the case of `Cc1nc2sccn2c(=O)c1CCN1CCC(c2noc3cc(F)ccc23)CC1` it was 165 °C; in that of `COC(=O)c1c(-c2cccc([N+](=O)[O-])c2)cc(-c2ccccc2)nc1C`, 127 to 129 °C; in that of `OCC1NCCc2occc21` (stereo not drawn), 66 to 69 °C.

The molecule `COc1cc2ncnc(N3CCC(N)CC3)c2cc1OC` had a melting point of 133 to 135 °C. In the case of `CC1(C(=O)O)OCCC2=CC3=CC=CCC3=C21` (stereo not drawn) it was 171 to 173 °C; in that of `COC(=O)c1ccc(CC(C=O)c2cc(C(=O)OC)ccc2[N+](=O)[O-])c(OC)c1` (stereo not drawn), 117 to 120 °C. To `Cc1oc(-c2cccc(Br)c2)nc1CCOc1ccc(OC(C)(C)C(=O)O)cc1` belongs 158 to 159 °C; to `Cc1cccc(-c2nc3cccnn3c2-c2ccnc(NC(=O)c3ccc(Cl)cc3)c2)c1`, 211 to 212 °C; to `CCOC(=O)c1c(CN(CC)CC)nc2sc(C)c(C)c2c1-c1ccc(Cl)cc1`, 98 to 100 °C. To `O=C(Cc1ccccc1)Nc1ccccc1SCc1ccc(Cl)cc1` belongs 100 to 101 °C; to `Clc1nn(-c2cccnc2)cc1NCC1CC1`, 82 to 83 °C; to `Clc1ccccc1-c1nc(Cl)n(-c2ccccc2Cl)n1`, 95.5 °C. As for `Cc1cnc(CO)c(Cl)c1N1CCOCC1`, the melting point lay in the range of 54 to 55 °C. In the case of `CS(=O)(=O)c1ccc(-c2cnn(CC(=O)c3ccccc3)c(=O)c2-c2ccc(F)cc2)cc1` it was 228 to 230 °C; in that of `COc1ncc(C)cc1Nc1cc(C#N)c2c(c1)[C@@H]1CNCC[C@@H]1N2C`, 76 to 80 °C. `CCCCCS(=O)(=O)NC(=O)/C=C/c1ccc(OCCOC)cc1OCC1CC1` gave a melting point of 64.8 to 66.3 °C. To `COC(=O)CNc1cc(-c2c3ccccc3c(Br)c3sc(C)c(C)c23)cc(Br)c1OC` belongs 194 to 198 °C. To `CC(C)(C)c1cc(CCc2n[nH]c(=S)o2)cc(C(C)(C)C)c1O` belongs 164 to 166 °C. In the case of `COC(=O)NC1CCc2ccsc2C1` (stereo not drawn) it was 156 to 157 °C; in that of `CC(C)(C)OC(=O)N1CCN(c2nccs2)CC1`, 114 to 116 °C; in that of `CN1CC(c2ccno2)CC2c3cccc4[nH]cc(c34)CC21` (stereo not drawn), 132 to 134 °C. On to `COC(=O)c1ccc(C(=O)C=C(c2cc(Cl)cc(C(F)(F)F)c2)C(F)(F)F)c2ccccc12`, for which the melting point is 90 to 90.5 °C.

On to `CS(=O)(=O)OCCC(CCOS(C)(=O)=O)C(F)(F)F`, for which the melting point fell in the range of 40 to 45 °C. As to `CCC1=Nc2cc(Cl)ccc2CC(c2sccc2C)N1C` (stereo not drawn), the melting point lay in the range of 94 to 96 °C. Turning to `COc1cc2nc(N3CCC(=O)CC3)nc(N)c2cc1OC`, the melting point fell in the range of 228 to 230 °C.

Consider `CC(C)(C)OC(=O)N1CCN(S(=O)(=O)c2ccc(N)c(Cl)c2)CC1`, for which the melting point was in the range of 243 to 244 °C. To `COc1ccc(C(F)(F)F)cc1N1CCN(CCCNC(=O)c2cccc3c(=O)c(C)c(-c4ccccc4)oc23)CC1` belongs 173 to 176 °C; to `N#Cc1ccc(-c2ccc(-c3ccc(C#N)o3)o2)cc1`, 194 to 195 °C. `COC(=O)Oc1ccc(OC)c(C=O)c1` yielded a melting point of 88 to 89 °C. In turn, `CC(=O)OCC1COc2c(ccc(F)c2F)N1` (stereo not drawn) displayed a melting point of 73 to 74 °C.

Molecule `CCC(O)c1ccc(Cl)c2nc3n(c12)CCCN3c1c(Br)cc(OC)cc1Br` (stereo not drawn) came in with a melting point of 138 to 140 °C. In the case of `Nc1cccc(CCO)c1` it was 61 to 64 °C; in that of `CN1CCN(C2=Cc3cc(Cl)ccc3C(=CC#N)c3ccccc32)CC1`, 196 to 198 °C.

`N#CC(C#N)=C1c2ccccc2-c2c(C(=O)OCCc3ccccc3)cccc21` registered a melting point of 115 to 117 °C. In the case of `NC1C(=O)N2C1SC1(CCOCC1)C2C(=O)O` (stereo not drawn) it was 189 to 192 °C; in that of `N/C(=C1\C(=O)c2cc(Cl)ccc2S1=O)c1ccccc1Cl` (stereo not drawn), 248 °C; in that of `ClC1(CN2c3ccccc3Sc3ccccc32)CN2CCC1CC2` (stereo not drawn), 156 to 160 °C. In the case of `O=C(O)c1cc(-c2ccccc2)c2c(n1)OCCN(Cc1cc(C(F)(F)F)cc(C(F)(F)F)c1)C2=O` it was 119 to 123 °C.

In turn, `CC(C)N1CCC(N2CCN(CCCN3CCOCC3)C2=C(C#N)C#N)CC1` yielded a melting point of 109 to 110 °C. In the case of `COc1ccccc1N1CCN(CC2Cc3cc(C)c4[nH]c(=O)ccc4c3O2)CC1` (stereo not drawn) it was 163 to 166 °C; in that of `OCc1cccn2cc(-c3ccccc3)nc12`, 85 to 87 °C.

As to `O=C1C(c2ccccc2)=C(c2ccccc2Cl)C(=O)N1c1ccc(Cl)cc1`, the melting point was determined as 46 °C. For `COc1cc(-n2cc(C(=O)O)c(=O)c3cc(F)c(F)c(Cl)c32)ccc1F`, the melting point was more than 280 °C. As for `O=C(Nc1nnn[nH]1)c1ccc(OCCn2ccnc2)cc1`, the melting point came out at 263 °C. To `N#Cc1ccccc1Sc1nsc2ccccc12` belongs 116 to 117 °C; to `COc1ccc(-c2cc3c(Br)c(OC)ccc3o2)cc1`, 115 to 117 °C. `FC1CN(C(c2ccccc2)c2ccccc2)C1` showed a melting point of 154 to 156 °C. In the case of `CN(C#N)C(=O)CCCCC(=O)N(C)C#N` it was 86.1 to 87.8 °C.

As for `CCOC(=O)COc1ccc2cc(S(N)(=O)=O)sc2c1`, the melting point was in the range of 182 to 184 °C.

`CC(=O)Nc1ccc(CCN(C)C)c2cn[nH]c12` yielded a melting point of 223 °C. To `CCCC(NS(=O)(=O)c1ccc(Cl)cc1)C(=O)Nc1ccc(CC(=O)OCC)cc1` (racemic) belongs 93 to 95 °C. To `OC(Cc1ccncc1)(c1ccccc1)c1ccccc1` belongs 154 to 155 °C; to `CC1CC(=O)NN=C1c1ccc(N2CCC(CN3C(=O)c4ccccc4C3=O)CC2)c([N+](=O)[O-])c1` (stereo not drawn), 256 to 258 °C. To `CCCCc1cnc(C2=NC(C)(C(C)C)C(=O)N2)c(C(=O)O)c1` (stereo not drawn) belongs 152 to 154 °C.

As to `NC(=O)CNC(=O)c1cccc(-c2ccc3c(c2)N(c2cccc(Cl)c2Cl)CC3)c1`, the melting point lay within 203 to 204 °C. To `CCSc1ccc(-c2coc3ccc(-c4nnc(C)o4)cc23)cc1F` belongs 115 to 116 °C. To `CNc1cc2c(cc1C)c(=O)c(C(=O)O)cn2-c1cc(N)c(F)cc1F` belongs more than 280 °C; to `O=C(O)C(C1CC(Cl)=NO1)N1C(=O)c2ccccc2C1=O` (stereo not drawn), 178 to 179 °C; to `O=C(CCl)c1ccc2c(c1)[C@H](NC(=O)C(F)(F)F)CC2`, 166 to 167 °C. In the case of `Cc1nn(C)c(/C(OC(=O)C(C)(C)C)=C(\C#N)c2ccc(C(C)(C)C)cc2)c1C` it was 110 °C.

The values are drawn from a melting point compilation (Tetko et al.; mined from patent text by program, amines drawn as free bases though some values may be those of a salt).
